pIC50: −log10 of the molar value.
Assays:
human recombinant HDAC6 = molecular target: T1, human recombinant HDAC6 (Homo sapiens, UniProt Q9UBN7); assay: HDAC6 enzyme activity inhibition assay (HDAC Fluorimetric Drug Discovery Kit); assay type: biochemical; conditions: for HDAC6 selectivity (fold): HDAC6 over HDAC1; for pIC50: human recombinant HDAC6, same protocol as HDAC1, read-out: HDAC6
T1 construct: purchased Calbiochem 382180
T1 sequence (Q9UBN7 1-1215): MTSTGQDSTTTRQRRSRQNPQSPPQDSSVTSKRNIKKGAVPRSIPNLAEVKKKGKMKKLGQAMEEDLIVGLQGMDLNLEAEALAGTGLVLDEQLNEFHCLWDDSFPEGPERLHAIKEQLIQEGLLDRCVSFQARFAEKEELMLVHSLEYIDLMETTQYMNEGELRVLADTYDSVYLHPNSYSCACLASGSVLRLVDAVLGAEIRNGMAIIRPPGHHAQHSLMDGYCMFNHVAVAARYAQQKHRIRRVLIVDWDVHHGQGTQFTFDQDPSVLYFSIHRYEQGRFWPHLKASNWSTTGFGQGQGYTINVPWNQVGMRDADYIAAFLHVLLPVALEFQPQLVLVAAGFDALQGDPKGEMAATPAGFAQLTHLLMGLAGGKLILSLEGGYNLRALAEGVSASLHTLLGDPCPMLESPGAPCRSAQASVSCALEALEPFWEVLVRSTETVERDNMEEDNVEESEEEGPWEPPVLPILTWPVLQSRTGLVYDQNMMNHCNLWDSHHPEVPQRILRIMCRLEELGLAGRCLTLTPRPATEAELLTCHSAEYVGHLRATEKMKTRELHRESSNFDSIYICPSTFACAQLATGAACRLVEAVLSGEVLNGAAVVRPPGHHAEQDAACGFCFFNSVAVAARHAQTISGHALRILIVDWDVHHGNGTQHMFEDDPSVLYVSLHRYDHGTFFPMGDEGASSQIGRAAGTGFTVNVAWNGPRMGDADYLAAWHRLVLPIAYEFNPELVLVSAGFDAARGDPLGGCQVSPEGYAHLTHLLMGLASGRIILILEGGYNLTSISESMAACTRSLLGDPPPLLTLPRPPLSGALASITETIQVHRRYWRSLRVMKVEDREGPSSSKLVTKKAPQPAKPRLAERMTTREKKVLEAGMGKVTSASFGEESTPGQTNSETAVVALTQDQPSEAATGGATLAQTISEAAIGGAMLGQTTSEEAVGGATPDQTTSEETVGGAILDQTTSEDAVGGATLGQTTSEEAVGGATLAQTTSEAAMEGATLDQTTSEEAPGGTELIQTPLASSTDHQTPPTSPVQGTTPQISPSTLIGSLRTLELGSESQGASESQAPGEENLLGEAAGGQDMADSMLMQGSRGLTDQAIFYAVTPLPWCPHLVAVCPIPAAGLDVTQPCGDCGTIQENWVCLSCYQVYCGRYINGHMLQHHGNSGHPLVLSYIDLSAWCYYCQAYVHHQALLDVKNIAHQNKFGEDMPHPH
Procedure, shortened: (§1)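 Human recombinant HDAC1 or HDAC6 (0.3 μg) reacted with 10 μM Fluor de Lys-SIRT1 substrate and 5-fold compound dilutions for 60 min at 30 °C. Developer II added for 30 min, fluorescence read at Ex 360/Em 460; IC50 calculated from the readings.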

human recombinant HDAC1 = molecular target: T2, human recombinant HDAC1 (Homo sapiens, UniProt Q13547); assay: HDAC1 enzyme activity inhibition assay (HDAC Fluorimetric Drug Discovery Kit); assay type: biochemical; conditions: 30° C. 60 minutes
T2 construct: purchased Enzo Life Science BML-SE456
Procedure, shortened: as §1

[1] = human recombinant HDAC1, Fluor de Lys substrate 10 μM
[2] = human recombinant HDAC1, Fluor de Lys substrate

T2 sequence (Q13547 whole entry): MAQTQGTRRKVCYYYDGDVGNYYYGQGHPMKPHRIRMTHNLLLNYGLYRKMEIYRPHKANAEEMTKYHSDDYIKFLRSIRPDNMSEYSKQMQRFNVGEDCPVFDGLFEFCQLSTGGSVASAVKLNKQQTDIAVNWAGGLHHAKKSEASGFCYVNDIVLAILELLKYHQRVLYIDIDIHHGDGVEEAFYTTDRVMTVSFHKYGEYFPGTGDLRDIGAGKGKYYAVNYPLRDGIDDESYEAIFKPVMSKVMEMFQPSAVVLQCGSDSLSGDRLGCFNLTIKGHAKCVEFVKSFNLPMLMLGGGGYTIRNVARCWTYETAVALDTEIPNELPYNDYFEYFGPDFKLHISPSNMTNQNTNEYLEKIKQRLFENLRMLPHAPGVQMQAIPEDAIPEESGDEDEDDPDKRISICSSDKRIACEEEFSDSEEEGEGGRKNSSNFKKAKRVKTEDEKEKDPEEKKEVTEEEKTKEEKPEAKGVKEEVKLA

SMILES | HDAC6 selectivity (fold) (human recombinant HDAC6) | pIC50 (human recombinant HDAC6) | pIC50 (human recombinant HDAC1; [1]) | pIC50 (human recombinant HDAC1; [2])
CCN1CCN(C(=O)N(Cc2ccc(-c3nnc(C(F)(F)F)o3)cc2)c2cccc(OC)c2)CC1 [Compound 21871, 4-Ethyl-N-(3-methoxyphenyl)-N-(4-(5-(trifluoromethyl)-1,3,4-oxadiazol-2-yl)benzyl)piperazine-1-carboxamide] | 28 fold | 6.49 | 5.04 | –
CCN1CCN(C(=O)N(Cc2ccc(-c3nnc(C(F)(F)F)o3)cc2F)c2cccc(OC)c2)CC1 [Compound 21872, 4-Ethyl-N-(2-fluoro-4-(5-(trifluoromethyl)-1,3,4-oxadiazol-2-yl)benzyl)-N-(3-methoxyphenyl)piperazine-1-carboxamide] | 38 fold | 6.60 | 5.03 | –
CCN1CCN(C(=O)N(Cc2ccc(-c3nnc(C(F)(F)F)o3)cn2)c2cccc(OC)c2)CC1 [Compound 21873, 4-Ethyl-N-(3-methoxyphenyl)-N-((5-(5-(trifluoromethyl)-1,3,4-oxadiazol-2-yl)pyridin-2-yl)methyl)piperazine-1-carboxamide] | 55 fold | 6.57 | 4.83 | –
CCN1CCN(C(=O)N(Cc2ccc(-c3nnc(C(F)(F)F)o3)cc2)c2ccc(OC)cc2)CC1 [Compound 21874, 4-Ethyl-N-(4-methoxyphenyl)-N-(4-(5-(trifluoromethyl)-1,3,4-oxadiazol-2-yl)benzyl)piperazine-1-carboxamide] | 20 fold | 6.51 | 5.21 | –
CCN1CCN(C(=O)N(Cc2ccc(-c3nnc(C(F)(F)F)o3)cc2F)c2ccc(OC)cc2)CC1 [Compound 21875, 4-Ethyl-N-(2-fluoro-4-(5-(trifluoromethyl)-1,3,4-oxadiazol-2-yl)benzyl)-N-(4-methoxyphenyl)piperazine-1-carboxamide] | 23 fold | 6.41 | 5.05 | –
CCN1CCN(C(=O)N(Cc2ccc(-c3nnc(C(F)(F)F)o3)cn2)c2ccc(OC)cc2)CC1 [Compound 21876, 4-Ethyl-N-(4-methoxyphenyl)-N-((5-(5-(trifluoromethyl)-1,3,4-oxadiazol-2-yl)pyridin-2-yl)methyl)piperazine-1-carboxamide] | 46 fold | 6.59 | 4.93 | –
CCN1CCN(C(=O)N(Cc2ccc(-c3nnc(C(F)F)o3)cc2)c2cccc(Cl)c2)CC1 [Compound 21877, N-(3-Chlorophenyl)-N-(4-(5-(difluoromethyl)-1,3,4-oxadiazol-2-yl)benzyl)-4-ethylpiperazine-1-carboxamide] | 1424 fold | 7.34 | 4.19 | –
CCN1CCN(C(=O)N(Cc2ccc(-c3nnc(C(F)F)o3)cc2F)c2cccc(Cl)c2)CC1 [Compound 21878, N-(3-Chlorophenyl)-N-(4-(5-(difluoromethyl)-1,3,4-oxadiazol-2-yl)-2-fluorobenzyl)-4-ethylpiperazine-1-carboxamide] | 522 fold | 7.39 | 4.67 | –
CCN1CCN(C(=O)N(Cc2ccc(-c3nnc(C(F)F)o3)cn2)c2cccc(Cl)c2)CC1 [Compound 21879, N-(3-Chlorophenyl)-N-((5-(5-(difluoromethyl)-1,3,4-oxadiazol-2-yl)pyridin-2-yl)methyl)-4-ethylpiperazine-1-carboxamide] | 1064 fold | 7.59 | 4.55 | –
CCN1CCN(C(=O)N(Cc2ccc(-c3nnc(C(F)F)o3)cc2)c2ccc(Cl)cc2)CC1 [Compound 21880, N-(4-Chlorophenyl)-N-(4-(5-(difluoromethyl)-1,3,4-oxadiazol-2-yl)benzyl)-4-ethylpiperazine-1-carboxamide] | 467 fold | 7.02 | 4.35 | –
CCN1CCN(C(=O)N(Cc2ccc(-c3nnc(C(F)F)o3)cc2)c2ccc(OC)cc2)CC1 [Compound 21892, N-(4-(5-(Difluoromethyl)-1,3,4-oxadiazol-2-yl)benzyl)-4-ethyl-N-(4-methoxyphenyl)piperazine-1-carboxamide] | 548 fold | 7.05 | 4.31 | –
CCN1CCN(C(=O)N(Cc2ccc(-c3nnc(C(F)F)o3)cc2F)c2ccc(OC)cc2)CC1 [Compound 21893, N-(4-(5-(Difluoromethyl)-1,3,4-oxadiazol-2-yl)-2-fluorobenzyl)-4-ethyl-N-(4-methoxyphenyl)piperazine-1-carboxamide] | 640 fold | 7.23 | 4.43 | –

Now from value to compound:

HDAC6 selectivity (fold) (human recombinant HDAC6) | pIC50 (human recombinant HDAC6) | pIC50 (human recombinant HDAC1; [1]) | pIC50 (human recombinant HDAC1; [2]) | SMILES
1588 fold | 7.32 | 4.12 | – | CCN1CCN(C(=O)N(Cc2ccc(-c3nnc(C(F)F)o3)cn2)c2ccc(OC)cc2)CC1 [Compound 21894, N-((5-(5-(Difluoromethyl)-1,3,4-oxadiazol-2-yl)pyridin-2-yl)methyl)-4-ethyl-N-(4-methoxyphenyl)piperazine-1-carboxamide]
82 fold | 6.46 | 4.55 | – | O=C(N1CCS(=O)(=O)CC1)N(Cc1ccc(-c2nnc(C(F)F)o2)cc1F)c1ccc(CN2CCN(C3COC3)CC2)cc1 [Compound 21896, N-(4-(5-(difluoromethyl)-1,3,4-oxadiazol-2-yl)-2-fluorobenzyl)-N-(4-((4-(oxetan-3-yl)piperazin-1-yl)methyl)phenyl)thiomorpholine-4-carboxamide 1,1-dioxide]
140 fold | 6.31 | 4.17 | – | CC(C)(C)CN1CCN(Cc2ccc(N(Cc3ccc(-c4nnc(C(F)(F)F)o4)cc3F)C(=O)N3CCS(=O)(=O)CC3)cc2)CC1 [Compound 21897, N-(2-fluoro-4-(5-(trifluoromethyl)-1,3,4-oxadiazol-2-yl)benzyl)-N-(4-((4-neopentylpiperazin-1-yl)methyl)phenyl)thiomorpholine-4-carboxamide 1,1-dioxide]
164 fold | 6.61 | 4.39 | – | O=C(N1CCS(=O)(=O)CC1)N(Cc1ccc(-c2nnc(C(F)(F)F)o2)cc1F)c1ccc(CN2CCN(C3COC3)CC2)cc1 [Compound 21898, N-(2-fluoro-4-(5-(trifluoromethyl)-1,3,4-oxadiazol-2-yl)benzyl)-N-(4-((4-(oxetan-3-yl)piperazin-1-yl)methyl)phenyl)thiomorpholine-4-carboxamide 1,1-dioxide]
1364 fold | 7.26 | 4.12 | – | CCN1CCN(Cc2ccc(N(Cc3ccc(-c4nnc(C(F)F)o4)cc3F)C(=O)N3CCS(=O)(=O)CC3)cc2)CC1 [Compound 21899, N-(4-(5-(difluoromethyl)-1,3,4-oxadiazol-2-yl)-2-fluorobenzyl)-N-(4-((4-ethylpiperazin-1-yl)methyl)phenyl)thiomorpholine-4-carboxamide 1,1-dioxide]
1454 fold | 7.41 | 4.25 | – | O=C(N1CCN(C2COC2)CC1)N(Cc1ccc(-c2nnc(C(F)F)o2)cn1)c1ccccc1 [Compound 21905, N-((5-(5-(Difluoromethyl)-1,3,4-oxadiazol-2-yl)pyridin-2-yl)methyl)-4-(oxetan-3-yl)-N-phenylpiperazine-1-carboxamide]
35 fold | 6.38 | – | 4.84 | O=C(N1CCOCC1)N(Cc1ccc(-c2nnc(C(F)(F)F)o2)cc1F)c1ccc(F)c(Cl)c1 [Compound 21930, N-(3-chloro-4-fluorophenyl)-N-(2-fluoro-4-(5-(trifluoromethyl)-1,3,4-oxadiazol-2-yl)benzyl)morpholine-4-carboxamide]
446 fold | 6.99 | – | 4.34 | O=C(N1CCN(C2COC2)CC1)N(Cc1ccc(-c2nnc(C(F)F)o2)cn1)c1ccc(F)cc1 [Compound 21941, N-((5-(5-(Difluoromethyl)-1,3,4-oxadiazol-2-yl)pyridin-2-yl)methyl)-N-(4-fluorophenyl)-4-(oxetan-3-yl)piperazine-1-carboxamide]

Source: patent publication US10717716B2, “1,3,4-oxadiazole derivative compounds as histone deacetylase 6 inhibitor, and the pharmaceutical composition comprising the same” (Chong Kun Dang Pharmaceutical Corp., priority 2015, dated 2020)
